How the values were obtained:
[1] = tested on: Varroa destructor; experiment: 1st test in hives: degree of infestation with Varroa; format: in vivo; conditions: for Degree of infestation with Varroa / Degree of infestation with Varroa, change versus batch I: overall dose 2 mg per colony; for Degree of infestation with Varroa: 100 = 1.78 mite/10 g of bees; for Degree of infestation with Varroa, change versus batch I: value in brackets
Experimental: Biological field tests were performed on families of European domestic bees of the species Apis mellifera […] experimental apiary located in the […] forestry district (Republic of Moldova). Feeding with the complex of the invention took place in spring. The biological tests were monitored up to the month of September. To administer the compounds to the bees, a very small amount of bioactive substance was added to two types of sugary feeding products for bees: candy in the form of a paste (70% sucrose, 30% honey) or syrup (50% sucrose, 50% water). The bees were fed by adding the candy/syrup to the feeder located in the inner upper part of the hive. The volume of syrup was adjusted based on the number of bee frames at the initial time, more precisely 200 g of candy per frame and 100 mL of syrup per frame, that is 2 kg of candy and 1 L of syrup per hive of 10 frames. For the first feeding step, candy in the form of a paste was only given once. […] From the start of the test to the end (after the second harvest), all the bees were monitored for several key morpho-producing parameters that reflect the development level of the colony and the vital aspects of the bees. The parameters studied are: the prolificity of the queen (fertility), the power of the colonies, the production of honey and the production of wax. These parameters were monitored in line with the zootechnical standards concerning the assessment of bee families, breeding and certification of beekeeping parental material approved by government decision No. 306 dated Apr. 28, 2011 of the Republic of Moldova. The assessment consists in counting the number of Varroa on a sample of adult bees. The value from this count is used as an index for monitoring the level of parasitism in the colony. The method uses icing sugar and a “shaker” jar made of transparent glass with a capacity of 1 kg. The cover is a mesh made of galvanized steel of the type placed at the bottom of the hive, with a mesh size of 3 mm. The mesh allows Varroa mites to pass through but retains the honey bees. The method is implemented according to the following steps: 40 to 50 g of honey bees are collected in the jar (approximately 400 bees), 100 g of icing sugar is added and the shaker jar is rolled for 1 minute so as to cover every bee in icing sugar. The icing sugar then makes it possible to separate the Varroa mites from the body of the host bee so that they drop off. Leave to rest for 1 minute: bees have a delousing behavior, which helps the Varroa mites to drop off. The icing sugar is sieved over a sieve which makes it possible to retain the Varroa mites and then count them. The result is given as the number of mites per 10 g of bees (approximately 100 bees) and can be expressed as a %. This rate is indicative of the Varroa burden in the colony. […] A moderate rate is between 2 and 5 and, in this case, treatment of the colonies must be scheduled. Finally, a rate greater than 5, requires emergency treatment of the colony. Our tests give a result of around 2% for worker bees. The molecules tested, their concentration in solution and their annual overall doses are listed below: • 1. […] The concentration of the complex in the syrup: 1.5×10^-7 mol/L. Overall and annual product dose: 2 mg of complex per colony • 2. […] The concentration of the complex in syrup: 3.0×10^-7 mol/L. Overall and annual product dose: 2 mg of complex per colony • 3. […] Overall and annual product dose: 2 mg of complex per colony • 4. LiCH3COO·H2O as a positive control, abbreviated as Li-Ac • The feeding is carried out with 2000 g of candy containing 0.8 mg of positive control product, then 6 to 7 L of syrup containing 0.2 mg/L of positive control product. The concentration of the product in syrup: 2.36×10^-6 mol/L that is 1.67×10^-5 g/L. Overall and annual product dose: 2 mg of product per colony

[2] = tested on: Varroa destructor; experiment: 2nd test in the hives: degree of larvae infestation with Varroa; format: in vivo; conditions: for Degree of larvae infestation with Varroa: 100 = larvae infestation rate of 28.2%; for Degree of larvae infestation with Varroa, change versus batch I: value in brackets
Experimental: The 2nd test was performed in the same apiary the following year. Feeding with the complex of the invention took place in spring. The biological tests were monitored up to the month of September. The molecules tested, their concentration in solution and their annual overall doses are listed below: • 1. […] The concentration of the complex in syrup: 1.5×10^-7 mol/L. Overall product dose: 2 mg/colony • 2. […] Overall complex dose: 6 mg/colony • 4. LiCH3COO·H2O for comparison, abbreviated as Li-Ac • The feeding is carried out with 2000 g of candy containing 0.8 mg of product then 6 to 7 L of syrup containing 0.2 mg/L of product. The concentration of product in the syrup: 2.36×10^-6 mol/L that is 1.67×10^-5 g/L. Overall product dose: 2 mg/colony [table]

[3] = tested on: human cervical epithelial cells of the HeLa line; experiment: Resazurin cell proliferation test, HeLa cells; format: cell-based; conditions: cervical cancer cells; IC50 equal to and greater than 100 μM considered no activity
Text: (§1) For cell culture, human cervical epithelial cells of the HeLa line, human epithelial pancreatic adenocarcinoma cells of the BxPC-3 line and healthy Madin-Darby canine kidney epithelial cells of the MDCK line were used in this study. The Resazurin cell proliferation test was applied according to the literature (S. Anoopkumar-Dukie, J. B. Carey, T. Conere, E. O'Sullivan, F. N. van Pelt, A. Allshire, Br J Radiol 2005, 78, 945, DOI: 10.1259/bjr/54004230). As an indicator of the effectiveness of the experimental compounds on cell proliferation, the median inhibitory concentration (IC50) was used. The lower the IC50 value, the higher the activity (in this case, the cytotoxicity).
(§2) Five formula I complexes were tested in this study in comparison to two reference anti-cancer compounds (“Cisplatin” and Doxorubicin complex).

[4] = tested on: human epithelial pancreatic adenocarcinoma cells of the BxPC-3 line; experiment: Resazurin cell proliferation test, BxPC-3 cells; format: cell-based; conditions: pancreatic cancer cells; IC50 equal to and greater than 100 μM considered no activity
Text: as §1, §2

| Compound | Degree of infestation with Varroa [1] | Degree of infestation with Varroa, change versus batch I [1] [%] | Degree of larvae infestation with Varroa ([2]; overall dose 2 mg/hive) | Degree of larvae infestation with Varroa, change versus batch I ([2]; overall dose 2 mg/hive) [%] | Protective effect against the infestation of bees by Varroa destructor ([1]; 1st test, 2 mg per colony, relative to untreated batch I, Li complex at a lithium concentration almost 4 times lower than Li—Ac) | IC50, HeLa [3] | IC50, BxPc-3 [4] | Degree of larvae infestation with Varroa ([2]; overall dose 6 mg/hive) | Degree of larvae infestation with Varroa, change versus batch I ([2]; overall dose 6 mg/hive) [%] | IC50 [3] [µM] | IC50 [4] [µM] |
| --- | --- | --- | --- | --- | --- | --- | --- | --- | --- | --- | --- |
| CC(=O)[O-].[Li+] [Li—Ac, LiCH3COO·H2O, reference compound] | 58.4 % relative to batch I | −41.6 | 64.9 % relative to batch I | −35.1 |  |  |  |  |  |  |  |
| O.O.O.O.O.O.O=C([O-])CN(CCN(CC(=O)[O-])CC(=O)[O-])CC(=O)[O-].[Li+].[Li+].[O]=[Mo+]12[O][Mo+]1(=[O])[O]2 [Li—Mo2O4-EDTA, Li2[Mo2O4 (EDTA)]·6H2O] | 57.3 % relative to batch I | −42.7 | 42.6 % relative to batch I | −57.4 | protective capacity comparable to that of the lithium acetate | Inactive | Inactive | 18.4 % relative to batch I | −81.6 |  |  |
| O.O.O.O.O.O=C([O-])CN(CCN(CC(=O)[O-])CC(=O)[O-])CC(=O)[O-].[Na+].[Na+].[O]=[Mo+]12[O][Mo+]1(=[O])[O]2 [Na—Mo2O4-EDTA, Na2[Mo2O4 (EDTA)]·5H2O] | 86.5 % relative to batch I | −13.5 |  |  |  | Inactive | Inactive |  |  |  |  |
| O=C([O-])CN(CCN(CC(=O)[O-])CC(=O)[O-])CC(=O)[O-].[O]=[Mo+]12[O][Mo+]1(=[O])[O]2.c1ccc([P+](c2ccccc2)(c2ccccc2)c2ccccc2)cc1.c1ccc([P+](c2ccccc2)(c2ccccc2)c2ccccc2)cc1 [PPh4—Mo2O4-EDTA, (PPh4)2[Mo2O4 (EDTA)]·2.5H2O] | 78.7 % relative to batch I | −21.3 | 56.0 % relative to batch I | −44.0 |  |  |  |  |  | ≥ 100 | 25.1 ± 7.02 |

From patent publication US12582721B2, “Molybdenum-based feed supplement for bees” (UNIVERSITE DE VERSAILLES—SAINT-QUENTIN-EN-YVELINES, priority 2020, dated 2026)
